Measurements taken from patent US20250032484A1, “THERAPEUTIC TARGETS AND AGENTS FOR THE TREATMENT OF POSTTRAUMATIC STRESS DISORDER” (priority 2021, published 2025).

Test system: VA patients with PTSD (PTSD symptoms, PTSD Checklist)
Assay: TreeScan nested case-control study of medications associated with PTSD symptom improvement (PTSD Checklist) in VA records
Type: in vivo, human
Settings: for association with PTSD symptom improvement, in words (statistical alert at P<0.1): overall sample
Experimental: Study Sample and Data Sources. A nested case-control study was conducted within a previously established retrospective cohort that included all VA users with a clinical diagnosis of PTSD (International Classification of Diseases [ICD]-9:309.81, ICD-10: F43.1x) from Oct. 1, 1999 through Sep. 30, 2019 (Shiner et al. (2021) J Eval Clin Pract.). The data source contains information on services use, clinical diagnoses, filled prescriptions, and patient-reported outcome measures (PROMs) for PTSD using the PTSD Checklist (PCL) for these patients. This study was approved by the Veterans Institutional Review Board of Northern New England.
The goal of the current study was to evaluate any filled medications associated with PTSD symptom improvement, and as such, the analytic sample for this study included only patients with PROMs that were at least 30 days apart. 30 days was selected to allow for medications to be taken for at least one full course (typically 28 days). Patients with PROMs more than 365 days apart were excluded as these are unlikely to provide an accurate assessment of PTSD symptom change between the two time points. For patients who had two overlapping PROM intervals, those closest to 84 days in length were chosen to emulate typical PTSD medication efficacy trials (Watts et al. (2013) J Clin Psychiatry. 74: e541-550). When a patient had two or more overlapping intervals at exactly 84 days, the historically earliest interval was chosen. If patients had multiple non-overlapping intervals, all were included. Patients who met the selection criteria for PTSD in the original cohort and had at least one PROM pair where they started a new medication (defined below) constituted the overall analytic sample for the current study.
PTSD Improvement Cases and No Improvement Controls. In order to maximize the number of patients with available symptomatic measurement, two different versions of a PROM for PTSD were integrated into a single dataset (Shiner et al. (2021) J Eval Clin Pract.). The two PROMs were the PCL versions aligned to the Diagnostic and Statistical Manual of Mental Disorders (DSM), version IV and Version 5 (APA (2000): Diagnostic and Statistical Manual of Mental Disorders. 4th Edition. Text Revision: DSM-IV-TR. Arlington, VA: American Psychiatric Association: APA (2013): Diagnostic and Statistical Manual of Mental Disorders: Fifth Edition (DSM-5). Washington, D.C.: American Psychiatric Association), which will heretofore be called the PCL-IV and the PCL-5 (Blevins et al. (2015) J Trauma Stress. 28:489-498: Weathers et al. (1993) Trauma. Coping. and Adaptation. San Antonio, Texas: International Society for Traumatic Stress Studies, 9th Annual Meeting). […] A validated crosswalk (ICC=0.96) was used to convert all values to PCL-5 scoring (Moshier et al. (Under review): An empirical crosswalk for the PTSD Checklist: Translating DSM-IV to DSM-5). PTSD improvement cases were defined by a clinically meaningful improvement, which was a decrease of 15 points or more between assessment points (Lee et al. (2019) Reliable Change Index and Clinically Significant Margins for the CAPS-5 and PCL-5 among Veterans. Boston, MA: International Society for Traumatic Stress Studies, 35th Annual Meeting). […] Thus, the no PTSD improvement control group was defined as worsening of symptoms or reductions of up to 7 points on the PCL. Improvements between 8 and 14 points were of uncertain clinical significance and were therefore excluded.
Identification and Classification of New Medications. The predictors of interest were initiation of medications for any indication. Candidate agents included those that were started in the interval between PCL pairs and continued for at least a 28-day supply. When patients started multiple medications between a given PCL pair, they contributed information for each of the medications in the tree.

[1] = all patients in the overall sample
[2] = baseline PCL score of 38 or higher and PTSD diagnosis within 30 days
[3] = case = improved by 15 or more points on PTSD Checklist, all patients in the overall sample
[4] = improvement in PTSD, all patients in the overall sample
[5] = baseline PCL 38 or higher, PTSD diagnosis within 30 days, without any concurrent evidence-based treatment
[6] = overall sample without any concurrent evidence-based treatment

Row | Molecule | EXP = Expected Cases [1] | EXP = Expected Cases [2] | O:E = Observed Cases over Expected Cases [2] | OBS = Observed Cases [2] | OBS = Observed Cases [3] | O:E = Observed Cases over Expected Cases [4] | EXP = Expected Cases [5] | O:E = Observed Cases over Expected Cases [5] | OBS = Observed Cases [5] | association with PTSD symptom improvement, in words (statistical alert at P<0.1) | EXP = Expected Cases [6] | O:E = Observed Cases over Expected Cases [6] | OBS = Observed Cases [6] | O:E = Observed Cases over Expected Cases (improvement in PTSD, all patients in the overall sample, listed as pibrentasvir) | O:E = Observed Cases over Expected Cases (improvement in PTSD, all patients in the overall sample, listed as velpatasvir)
1 | CNCC[C@@H](Oc1ccccc1C)c1ccccc1 [Atomoxetine] | 74 | 65 | 1.41 | 92 | 104 | 1.40 | – | – | – | – | – | – | – | – | –
2 | CN(C)CCCC1(c2ccc(F)cc2)OCc2cc(C#N)ccc21 (stereo not shown) [Citalopram] | 1508 | 1202 | 1.10 | 1315 | 1653 | 1.10 | 632 | 1.25 | 785 | similarly small associations | 814 | 1.28 | 1039 | – | –
3 | CN(C)CCC[C@@]1(c2ccc(F)cc2)OCc2cc(C#N)ccc21 [Escitalopram] | – | – | – | – | – | – | – | – | – | – | 474 | – | 558 | – | –
4 | Nc1nc2ncc(CNc3ccc(C(=O)N[C@@H](CCC(=O)O)C(=O)O)cc3)nc2c(=O)[nH]1 [Folic Acid] | 445 | 391 | 1.20 | 469 | 567 | 1.27 | – | – | – | – | 134 | 1.38 | 185 | – | –
5 | [Li] [Lithium] | 246 | – | – | – | 304 | 1.24 | – | – | – | similarly small associations | 92 | 1.38 | 127 | – | –
6 | COc1ccc2[nH]cc(CCNC(C)=O)c2c1 [Melatonin] | 1161 | 1033 | 1.10 | 1131 | 1295 | 1.12 | – | – | – | – | – | – | – | – | –
7 | CN1CCN2c3ncccc3Cc3ccccc3C2C1 (stereo not shown) [Mirtazapine] | – | – | – | – | – | – | – | – | – | – | 755 | 1.13 | 849 | – | –
8 | CN1CCCC1c1cccnc1 (stereo not shown) [Nicotine] | 2109 | 1736 | – | 2007 | 2371 | 1.13 | 522 | 1.17 | 610 | – | – | – | – | – | –
9 | COC(=O)N[C@H](C(=O)N1CCC[C@H]1c1nc2cc(F)c([C@H]3CC[C@H](c4cc5[nH]c([C@@H]6CCCN6C(=O)[C@@H](NC(=O)OC)[C@@H](C)OC)nc5cc4F)N3c3cc(F)c(N4CCC(c5ccc(F)cc5)CC4)c(F)c3)cc2[nH]1)[C@@H](C)OC [Pibrentasvir, pibrentasvir] | 16 | 14 | 2.21 | 30 | 33 | 2.09 | 4 | 3.52 | 14 | – | 5 | 3.09 | 14 | 2.09 | –
10 | Cc1ncc(C[n+]2csc(CCO)c2C)c(N)n1 [Thiamine] | 351 | 304 | 1.24 | 377 | 444 | 1.27 | – | – | – | – | 106 | 1.38 | 146 | – | –
11 | O=c1n(CCCN2CCN(c3cccc(Cl)c3)CC2)nc2ccccn12 [Trazodone] | 4061 | 3396 | 1.07 | 3610 | 4308 | 1.06 | 893 | 1.12 | 992 | similarly small associations | 1157 | 1.1 | 1272 | – | –
12 | COC[C@H]1C[C@@H](c2ncc(-c3ccc4c(c3)COc3cc5c(ccc6[nH]c([C@@H]7CC[C@H](C)N7C(=O)[C@@H](NC(=O)OC)C(C)C)nc65)cc3-4)[nH]2)N(C(=O)[C@H](NC(=O)OC)c2ccccc2)C1 [Velpatasvir, velpatasvir] | 11 | 10 | 2.17 | 21 | 24 | 2.10 | – | – | – | – | – | – | – | – | 2.10
13 | COC(=O)N[C@H](C(=O)N1CC2(CC2)C[C@H]1c1nc(-c2ccc3c(c2)C(F)(F)c2cc(-c4ccc5nc([C@@H]6[C@H]7CC[C@H](C7)N6C(=O)[C@@H](NC(=O)OC)C(C)C)[nH]c5c4)ccc2-3)c[nH]1)C(C)C [ledipasvir] | – | – | – | – | – | – | – | – | – | Neither sofosbuvir nor ledipasvir were associated with a significantly higher than expected improvement | – | – | – | – | –
14 | CC(C)OC(=O)[C@H](C)N[P@](=O)(OC[C@H]1O[C@@H](n2ccc(=O)[nH]c2=O)[C@](C)(F)[C@@H]1O)Oc1ccccc1 [sofosbuvir] | – | – | – | – | – | – | – | – | – | Neither sofosbuvir nor ledipasvir were associated with a significantly higher than expected improvement | – | – | – | – | –
15 | Cholecalciferol | 2470 | 2070 | 1.08 | 2238 | 2647 | 1.07 | – | – | – | – | – | – | – | – | –
16 | Fluoxetine | 1571 | – | – | – | 1716 | 1.09 | – | – | – | similarly small associations | – | – | – | – | –
17 | Naloxone | 312 | 279 | 1.35 | 376 | 426 | 1.37 | – | – | – | – | – | – | – | – | –
18 | Naltrexone | 504 | 444 | 1.21 | 536 | 605 | 1.20 | – | – | – | – | – | – | – | – | –
19 | Quetiapine | – | – | – | – | – | – | – | – | – | – | 371 | 1.24 | 460 | – | –
20 | Sertraline | 4025 | 3434 | – | 3909 | 4659 | – | – | – | – | – | – | – | – | – | –
